The values below come from patent US20110189174A1, “COMPOSITIONS AND METHODS FOR TREATING, REDUCING, AMELIORATING, ALLEVIATING, OR INHIBITING PROGRESSION OF, PATHOGENIC OCULAR NEOVASCULARIZATION” (priority 2010, published 2011).

The subject of the experiment is human retinal endothelial cells (HREC). Briefly: Testing 5: VEGF-induced HREC proliferation (MTS assay), echistatin and Avastin alone and in combination. Format: cell-based. Here is the method: HREC were first cultured overnight in a 96-well plate coated with fibronectin. The next day, cells were serum-starved for 2 h before treatment. Medium containing different agents as shown in table below was pre-incubated for 1 h before being added to cells. The cells were cultured at 37° C., 5% CO2, and 95% humidity for another 3 days. After that, cell proliferation was estimated by the MTS assay. […] Normal human IgG was also added to different groups in such a way that all groups contained the same amounts of IgG protein.
A 96-well plate was coated with human fibronectin (10 μg/mL) for 5 hours. HREC were collected from flasks by EDTA-trypsin treatment and re-suspended in 10% FBS CS-C medium at 15,000 cells/mL. Cells (200 μL) were added to the plate and cultured overnight at 37° C., 5% CO2, and 95% humidity. Next day, the medium was removed and 200 μl/well serum free medium was added.
All medium solutions were incubated for 1 h at 37° C. After carefully aspirating the medium from cells, […], of the medium containing the different agents was added into appropriate wells. The cells were cultured for another 3 days.
At the end of incubation, the medium was carefully aspirated from cells and 120 μl of MTS working solution was added into all wells including blank wells (without cells). The plate was incubated at 37° C., 5% CO2, and 95% humidity for 1 hour and then absorbance was read by a plate reader at 490 nm wavelength.
Median optical density (OD) was generated from different groups. Data were expressed as mean±SEM of the OD values. Statistical analysis was performed using a one or two-way ANOVA using Box-Cox transformed data if needed, and P<0.05 was considered statistically significant. […] All the data from the individual wells were fitted to a re-parameterized four-parameter logistic equation to obtain IC50 using similar methodology as that previously described and utilizing the statistical analysis software JMP (SAS Institute, Cary, N.C.).
Background: Formazan colour is commonly taken as a measure of viable cells.

As for “bevacizumab [Avastin, reference compound]”, under “VEGF 10 ng/mL, estimated”, the “IC50 ± SE of Avastin alone on inhibiting VEGF-induced proliferation of HREC” value was 0.021 µg/mL. Moreover, the “Inhibition of VEGF-induced HREC proliferation, agent alone” value (echistatin 2 nM, Avastin 0.625-10 ng/ml (significant at 10 ng/ml), VEGF 10 ng/mL) is on record as “dose-dependent inhibition”. Under “echistatin 2 nM, Avastin 0.625-10 ng/ml, no VEGF”, the “HREC proliferation under basal conditions” value is listed as “no effect”.
